Experimental data from patent US7354728B2, “Coactivation of nuclear receptors” (N.V. Organon, priority 2000, dated 2008).
Each block holds one compound with its values, some of them ahead of it.

Columns and labels:
ERβ = biological target: T1, ERβ (Homo sapiens, UniProt Q92731); experiment: Transient transfection of U-2 OS cells with ERβ and ERE luciferase reporter, with or without COASTER; type: cell-based; conditions: 10^−8 M ligand, ± SD triplicate
T1 construct: expressed in transfected cells; host or cells: U-2 OS
Experimental: (§1) To test the functional role of COASTER in a mammalian setting, the full length COASTER (amino acids 1-1013) cDNA was cloned in a mammalian cell expression vector. The functional role of COASTER was analyzed by cotransfection of U-2 OS cells with the COASTER expression plasmid in combination with a steroid receptor expressing plasmid, and a plasmid containing a luciferase reporter gene under control of a hormone responsive element. Following transfection, cells were stimulated with the appropriate hormone for the receptor under study.
(§2) U-2 OS cells were transiently transfected with pNGV1.ERβ and p4ERE-TATA-LUC (1), pNGV1.ERα and p4ERE-TATA-LUC (2), pKCRE.PR and pMMTV-LUC (3) or pNGV1.GR and pMMTV-LUC (4). Where indicated, COASTER expression construct pCDNA3.1HISC.COASTER was added to the transfection mixture. Following transfection, cell were incubated with the hormones indicated in the top row. […] Org 2058=16α-ethyl-21-hydroxy-19-norpregn-4-ene-3,20-dione.
(§3) Initially, a plasmid encoding a truncated form of COASTER (pACT2.COASTERΔ, amino acids 1-234) was isolated in the yeast two hybrid screen. […] The 5′ end of the COASTER (amino acid 1 to 332) was amplified by PCR on human-testis Marathon Ready cDNA (Clontech, Palo Alto, USA, cat.#7414-1) using primers […] […]

ERβ and COASTER = ERβ and COASTER (Homo sapiens, UniProt Q92731); experiment: Yeast two-hybrid assay, β-galactosidase reporter, ERβ with COASTER amino acids 1-234; type: cell-based; conditions: yeast AH109, pGBT9.ERβ + pACT2.COASTERΔ; 10^−8 M 17β-estradiol, 10^−5 M raloxifen
[1] = biological target: progesterone receptor (PR) (Homo sapiens, UniProt P06401); experiment: Transient transfection of U-2 OS cells with PR and pMMTV-LUC reporter, with or without COASTER; type: cell-based; conditions: 10^−8 M ligand, ± SD triplicate
Experimental: as §1, §2, §3

[2] = biological target: human estrogen receptor β, expressed from pNGV1.ERβ in U-2 OS cells (human) (UniProt Q92731); experiment: cell-based or functional assay
[3] = biological target: glucocorticoid receptor, expressed from pNGV1.GR in U-2 OS cells (human) (UniProt P04150); experiment: cell-based or functional assay
[4] = biological target: progesterone receptor, expressed from pKCRE.PR in U-2 OS cells; experiment: cell-based or functional assay

Chain of human estrogen receptor β, expressed from pNGV1.ERβ in U-2 OS cells (human) (Q92731 whole entry): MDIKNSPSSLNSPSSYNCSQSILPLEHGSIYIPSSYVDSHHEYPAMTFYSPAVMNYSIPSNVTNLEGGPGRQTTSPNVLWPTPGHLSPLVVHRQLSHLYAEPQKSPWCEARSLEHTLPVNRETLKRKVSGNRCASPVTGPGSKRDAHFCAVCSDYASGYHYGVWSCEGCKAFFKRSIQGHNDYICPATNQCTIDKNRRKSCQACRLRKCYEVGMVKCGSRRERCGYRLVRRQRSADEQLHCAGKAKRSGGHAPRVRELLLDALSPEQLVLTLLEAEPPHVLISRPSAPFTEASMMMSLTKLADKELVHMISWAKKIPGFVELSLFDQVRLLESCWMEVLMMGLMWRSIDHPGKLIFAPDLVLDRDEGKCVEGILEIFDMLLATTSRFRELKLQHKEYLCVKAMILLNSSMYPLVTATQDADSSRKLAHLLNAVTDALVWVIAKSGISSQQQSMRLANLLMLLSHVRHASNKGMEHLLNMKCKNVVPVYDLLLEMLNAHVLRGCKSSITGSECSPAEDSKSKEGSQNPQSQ
T1 sequence (Q92731 whole entry): as above
Chain of glucocorticoid receptor, expressed from pNGV1.GR in U-2 OS cells (human) (P04150 whole entry): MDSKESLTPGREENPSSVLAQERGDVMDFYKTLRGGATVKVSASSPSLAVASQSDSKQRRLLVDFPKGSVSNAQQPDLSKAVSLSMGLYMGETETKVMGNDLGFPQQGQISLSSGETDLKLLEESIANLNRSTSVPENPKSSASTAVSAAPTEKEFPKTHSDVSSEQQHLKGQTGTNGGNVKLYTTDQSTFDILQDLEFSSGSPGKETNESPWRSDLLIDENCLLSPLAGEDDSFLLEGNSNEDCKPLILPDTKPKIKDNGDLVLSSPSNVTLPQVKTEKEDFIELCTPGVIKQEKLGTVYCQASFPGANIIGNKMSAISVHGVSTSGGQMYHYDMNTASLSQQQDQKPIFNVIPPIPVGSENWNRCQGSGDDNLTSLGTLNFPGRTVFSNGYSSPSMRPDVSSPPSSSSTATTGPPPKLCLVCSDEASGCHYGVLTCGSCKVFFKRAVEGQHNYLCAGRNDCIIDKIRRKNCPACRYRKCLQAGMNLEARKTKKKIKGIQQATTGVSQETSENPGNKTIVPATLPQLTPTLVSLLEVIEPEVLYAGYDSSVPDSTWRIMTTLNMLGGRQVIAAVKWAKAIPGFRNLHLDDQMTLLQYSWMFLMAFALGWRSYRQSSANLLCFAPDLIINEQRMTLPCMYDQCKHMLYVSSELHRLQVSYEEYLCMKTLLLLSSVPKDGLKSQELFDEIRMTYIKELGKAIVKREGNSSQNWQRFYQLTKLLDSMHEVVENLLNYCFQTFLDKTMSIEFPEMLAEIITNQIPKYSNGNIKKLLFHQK
Chain of progesterone receptor (PR) (P06401 whole entry, species assumed): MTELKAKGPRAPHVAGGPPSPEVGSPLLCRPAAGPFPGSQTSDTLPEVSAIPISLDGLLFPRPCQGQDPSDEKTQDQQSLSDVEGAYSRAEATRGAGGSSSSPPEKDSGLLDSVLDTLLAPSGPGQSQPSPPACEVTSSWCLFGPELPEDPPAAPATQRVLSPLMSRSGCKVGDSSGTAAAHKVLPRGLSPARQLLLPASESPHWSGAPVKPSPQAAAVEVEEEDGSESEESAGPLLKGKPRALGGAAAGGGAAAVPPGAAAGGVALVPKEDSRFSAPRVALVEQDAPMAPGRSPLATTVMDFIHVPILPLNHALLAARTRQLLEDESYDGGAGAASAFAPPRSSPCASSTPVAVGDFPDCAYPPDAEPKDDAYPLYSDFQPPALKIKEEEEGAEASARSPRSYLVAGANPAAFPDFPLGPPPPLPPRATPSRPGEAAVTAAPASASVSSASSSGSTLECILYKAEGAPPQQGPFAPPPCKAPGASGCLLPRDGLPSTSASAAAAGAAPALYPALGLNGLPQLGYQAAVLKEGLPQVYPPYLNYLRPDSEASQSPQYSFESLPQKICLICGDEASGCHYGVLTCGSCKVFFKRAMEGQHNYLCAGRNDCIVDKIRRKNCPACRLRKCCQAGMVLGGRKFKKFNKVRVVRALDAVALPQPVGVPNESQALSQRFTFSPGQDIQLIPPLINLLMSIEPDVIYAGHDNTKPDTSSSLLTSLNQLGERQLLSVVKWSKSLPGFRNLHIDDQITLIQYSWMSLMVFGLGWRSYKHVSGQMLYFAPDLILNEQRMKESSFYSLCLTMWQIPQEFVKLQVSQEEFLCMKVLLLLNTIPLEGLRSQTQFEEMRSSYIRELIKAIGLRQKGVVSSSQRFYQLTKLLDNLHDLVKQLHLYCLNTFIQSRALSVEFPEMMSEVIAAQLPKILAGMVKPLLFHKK
Chain of ERβ and COASTER (Q92731 whole entry, the tested form may be a part): as the sequence (Q92731 whole entry) above

Compound: C[C@]12CC[C@@H]3c4ccc(O)cc4CC[C@H]3[C@@H]1CC[C@@H]2O [17β-estradiol]
signalling via the ERα/β chimera (ERα/β chimera): able to signal
luciferase activity (ERβ; pNGV1.ERβ + p4ERE-TATA-LUC + COASTER): 8200 ± 819
luciferase activity (ERβ; pNGV1.ERβ + p4ERE-TATA-LUC, no COASTER): 500 ± 109
β-galactosidase reporter activity (ERβ-COASTER interaction, FIG. 3) (ERβ and COASTER): dose-dependent induction

luciferase activity ([1]; pKCRE.PR + pMMTV-LUC + COASTER): 3229 ± 683
luciferase activity ([1]; pKCRE.PR + pMMTV-LUC, no COASTER): 822 ± 112
Compound: CC[C@@H]1C[C@H]2[C@@H]3CCC4=CC(=O)CC[C@@H]4[C@H]3CC[C@]2(C)[C@H]1C(=O)CO [Org 2058, 16α-ethyl-21-hydroxy-19-norpregn-4-ene-3,20-dione]

Compound: O=C(c1ccc(OCCN2CCCCC2)cc1)c1c(-c2ccc(O)cc2)sc2cc(O)ccc12 [raloxifen]
signalling via the ERα/β chimera (ERα/β chimera): able to signal

luciferase activity, p4ERE-TATA-LUC in U-2 OS cells, 10^-8 M 17β-estradiol (luciferase activity) [2]: 8200
luciferase activity, p4ERE-TATA-LUC in U-2 OS cells, 10^-8 M ICI 164,384 (luciferase activity) [2]: 101
luciferase activity, p4ERE-TATA-LUC in U-2 OS cells, no hormone (luciferase activity) [2]: 133
luciferase activity, pMMTV-LUC in U-2 OS cells, 10^-8 M Dexamethasone (luciferase activity) [3]: 35200
luciferase activity, pMMTV-LUC in U-2 OS cells, no hormone (luciferase activity) [3]: 103
luciferase activity, pMMTV-LUC in U-2 OS cells, 10^-8 M Org 2058 (luciferase activity) [4]: 3230
luciferase activity, pMMTV-LUC in U-2 OS cells, no hormone (luciferase activity) [4]: 81
Compound: full length COASTER (amino acids 1-1013), expressed from pCDNA3.1HISC.COASTER (from UniProt Q9Y4E5 1-1013)
